In ChEMBL document CHEMBL1126935, “N-acyl-L-tryptophan benzyl esters: potent substance P receptor antagonists” (J Med Chem, 1993) one finds IC50 data, which are given here for seven compounds.

The experiment concerns the target Substance-P receptor (Homo sapiens, UniProt P25103). Nature of the experiment: Tested against cloned human NK1 receptor by displacement of 125 I -labeled substance P expressed in CHO cells. It is filed as cell-based.

Substance-P receptor, sequence (P25103 whole entry): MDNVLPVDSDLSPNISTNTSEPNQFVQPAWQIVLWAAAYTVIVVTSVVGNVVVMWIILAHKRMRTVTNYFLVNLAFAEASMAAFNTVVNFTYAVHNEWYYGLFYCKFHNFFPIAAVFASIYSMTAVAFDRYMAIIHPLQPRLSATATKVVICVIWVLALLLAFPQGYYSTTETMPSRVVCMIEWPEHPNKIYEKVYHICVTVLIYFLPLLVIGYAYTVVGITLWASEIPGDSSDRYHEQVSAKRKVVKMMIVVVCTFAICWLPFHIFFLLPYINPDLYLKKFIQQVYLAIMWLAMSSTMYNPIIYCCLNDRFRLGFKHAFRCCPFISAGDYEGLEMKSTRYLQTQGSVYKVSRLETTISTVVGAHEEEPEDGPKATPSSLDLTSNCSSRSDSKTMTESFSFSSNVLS

By IC50 is commonly meant the concentration needed to halve the response being measured. Read a low IC50 as greater potency in that assay. In the case of `N[C@@H](Cc1c[nH]c2ccccc12)C(=O)OCc1ccccc1`, the IC50 is more than 10000 nM.
As for `Cc1cc(C)cc(COC(=O)[C@@H](N)Cc2c[nH]c3ccccc23)c1`, the figure is 1530 nM; as for `COc1ccccc1COC(=O)[C@H](Cc1c[nH]c2ccccc12)NC(=O)OC(C)(C)C`, 280 nM.
As for `CC(C)(C)OC(=O)N[C@@H](Cc1c[nH]c2ccccc12)C(=O)OCc1ccccc1`, the figure is 413 nM; as for `CC(=O)N[C@@H](Cc1c[nH]c2ccccc12)C(=O)OCc1cc(C)cc(C)c1` [L-708568], 67 nM.
As for `Cc1cc(C)cc(COC(=O)[C@H](Cc2c[nH]c3ccccc23)[N+](C)(C)C)c1`, the figure is 125 nM; as for `Cc1cc(C)cc(COC(=O)[C@H](Cc2c[nH]c3ccccc23)N(C)C)c1`, 553 nM.
